According to ChEMBL document CHEMBL1641362, “Inhibition of P-glycoprotein-mediated Multidrug Resistance (MDR) by N,N-bis(cyclohexanol)amine aryl esters: further restriction of molecular flexibility maintains high potency and efficacy” (Bioorg Med Chem Lett, 2011):
pIC50: −log10 of the molar value.

Test: Inhibition of Pgp-mediated multidrug resistance in doxorubicin-resistant human K562 cells assessed as drug level required for 50% increase in nuclear concentration of pirarubicin by fluorescence assay
Assay type: cell-based
Conditions: read-out: I50

Question: With `COc1cc(CCC(=O)O[C@H]2CC[C@@H](N(C)[C@H]3CC[C@@H](OC(=O)c4cc(OC)c(OC)c(OC)c4)CC3)CC2)cc(OC)c1OC` as the compound, how does the pIC50 read?
Answer: 5.96

Question: With `COc1cc(C#CC(=O)O[C@H]2CC[C@H](N(C)[C@H]3CC[C@H](OC(=O)c4cc(OC)c(OC)c(OC)c4)CC3)CC2)cc(OC)c1OC` as the compound, how does the pIC50 read?
Answer: 7.15

Question: With `COc1cc(/C=C/C(=O)O[C@H]2CC[C@H](N(C)[C@H]3CC[C@@H](OC(=O)c4cc(OC)c(OC)c(OC)c4)CC3)CC2)cc(OC)c1OC` (mixture of isomers) as the compound, how does the pIC50 read?
Answer: 7.04

Question: With `COc1cc(CCC(=O)O[C@H]2CC[C@H](N(C)[C@H]3CC[C@@H](OC(=O)c4cc(OC)c(OC)c(OC)c4)CC3)CC2)cc(OC)c1OC` (mixture of isomers) as the compound, how does the pIC50 read?
Answer: 6.20

Question: With `COc1cc(CCC(=O)O[C@H]2CC[C@H](N(C)[C@H]3CC[C@H](OC(=O)c4cc(OC)c(OC)c(OC)c4)CC3)CC2)cc(OC)c1OC` (mixture of isomers) as the compound, how does the pIC50 read?
Answer: 6.21

Question: With `COc1cc(CCC(=O)O[C@H]2CC[C@@H](N(C)[C@H]3CC[C@H](OC(=O)c4cc(OC)c(OC)c(OC)c4)CC3)CC2)cc(OC)c1OC` (mixture of isomers) as the compound, how does the pIC50 read?
Answer: 6.46

Question: With `COc1cc(C#CC(=O)O[C@H]2CC[C@H](N(C)[C@H]3CC[C@@H](OC(=O)c4cc(OC)c(OC)c(OC)c4)CC3)CC2)cc(OC)c1OC` (mixture of isomers) as the compound, how does the pIC50 read?
Answer: 7.10

Question: With `COc1cc(C#CC(=O)O[C@H]2CC[C@@H](N(C)[C@H]3CC[C@@H](OC(=O)c4cc(OC)c(OC)c(OC)c4)CC3)CC2)cc(OC)c1OC` (mixture of isomers) as the compound, how does the pIC50 read?
Answer: 7.15

Question: With `COc1cc(C#CC(=O)O[C@H]2CC[C@@H](N(C)[C@H]3CC[C@H](OC(=O)c4cc(OC)c(OC)c(OC)c4)CC3)CC2)cc(OC)c1OC` (mixture of isomers) as the compound, how does the pIC50 read?
Answer: 7.70
